Patent US4252804A, “Therapeutically useful 3,4,5-trimethoxybenzene derivatives” (Metabio-Joullie, priority 1977, dated 1981)

Key:
Assay type in all cases: in vivo
[1] = Acute toxicity for oral administration in mice; settings: mouse, in vivo, suspension in 10% gum arabic
Method: (§1) 1--ACUTE TOXICITY FOR ORAL ADMINISTRATION IN MICE
(§2) The compounds are administered orally in increasing doses in suspension in a 10% gum arabic solution to groups of 5 .female. mice of mean weight 25 g. The 50% lethal doses (LD 50) are calculated by the method of KARBER and BEHRENS (Arch. Exp. Path. Pharmakol. 1935, 177, 379-388).
(§3) The LD 50's found are summarised in Table IV below and indicate that the tested compounds have low toxicity.

[2] = tested on: spontaneous motor activity; assay: Action on spontaneous motor activity in the mouse (BOISSIER); settings: po, 0.5 h, 30 minutes after administration, vs control, read-out: Percentage variation in motor activity; for change in vivo at 500 mg/kg: 500 mg/kg p.o.
Method: 2.1--Action on spontaneous motor activity in the mouse
30 minutes after administration per os of the test compounds, the mice (groups of 12 animals) are installed in individual cages in a BOISSIER activity measuring cupboard and move about before two photoelectric cells placed according to the rectangular coordinates. Meters register the movement during 20 minutes.

[3] = tested on: convulsant effects of strychnine; assay: Action against the convulsant effects of strychnine in the mouse; settings: 30 minutes before strychnine 1.5 mg/kg s.c.
Method: (§4) 2.3--Test on the action against the convulsant effects of electric shock and of strychnine in the mouse
(§5) 30 minutes after administration of the compounds to groups of 10 animals, there is investigated the protection induced against:
convulsive crisis and death provoked by injection of strychnine at a limiting lethal dose of 1.5 mg/kg s.c.
(§6) The results are expressed as a percentage of protection based on a control group which have only received the administration vehicle for the compounds.

[4] = tested on: convulsant effects of electric shock; assay: Action against the convulsant effects of electric shock in the mouse; settings: po, 0.5 h, 30 minutes before shock, 13 to 16 mA for 0.1 sec, read-out: Percentage protection against the convulsant effects of the electric shock; for responders at 500 mg/kg: 500 mg/kg p.o.
Method: as §4, §5
tonic crisis (extension of rear feet) provoked by supramaximal transcranial electric stimulation (13 to 16 mA for 0.1 sec).
as §6

[5] = tested on: pentobarbital hypnosis time; assay: Action on the pentobarbital hypnosis time in the mouse; settings: po, 0.5 h, 30 minutes before pentobarbital 50 mg/kg i.v., vs control, read-out: Percentage variation in pentobarbital hypnosis time
From the text: 2.2--Action on the pentobarbital hypnosis time in the mouse
The hypnosis time of each mouse is counted in minutes from the moment when the animal may be placed without resistance on its back until that when it spontaneously gets back on its feet.

mice = assay: Acute toxicity for oral administration in mice; settings: suspension in 10% gum arabic
Method: as §1, §2, §3

For COc1cc(NC(=O)N2CC=CCC2)cc(OC)c1OC [compound 819], the LD50 ([1]; po) was 5000 mg/kg, the change in vivo at 500 mg/kg [2] was -18% and the “Percentage protection against the convulsant effects of strychnine” value (“Percentage protection” below) ([3]; 500 mg/kg p.o.) was 70%. The responders at 500 mg/kg [4] was 40%.
With COc1cc(NC(=O)N2CCOCC2)cc(OC)c1OC [compound 733] the LD50 ([1]; po) was 4000 mg/kg, the change in vivo at 400 mg/kg ([2]; 400 mg/kg p.o.) was -74% and the change in vivo at 400 mg/kg ([5]; 400 mg/kg p.o.) was 164%. For the same compound, the “Percentage protection” value ([3]; 400 mg/kg p.o.) was 100% and the responders at 400 mg/kg ([4]; 400 mg/kg p.o.) was 30%.
Compound COc1cc(NC(=O)N(C)C2CCCC2)cc(OC)c1OC [compound 801] has an LD50 ([1]; po) of 2500 mg/kg, a change in vivo at 250 mg/kg ([2]; 250 mg/kg p.o.) of -29% and a change in vivo at 250 mg/kg ([5]; 250 mg/kg p.o.) of 70%. The “Percentage protection” value ([3]; 250 mg/kg p.o.) was 100% and the responders at 250 mg/kg ([4]; 250 mg/kg p.o.) was 37%.
Work on COc1cc(OC(=O)N2CCOCC2)cc(OC)c1OC [compound 754] yielded an LD50 [1] of 5000 mg/kg, a change in vivo at 500 mg/kg [2] of -41% and a change in vivo at 500 mg/kg ([5]; 500 mg/kg p.o.) of 178%. For the same compound, the “Percentage protection” value ([3]; 500 mg/kg p.o.) was 100% and the responders at 500 mg/kg [4] was 90%.
In the case of COc1cc(NC(=O)N2CCCCC2)cc(OC)c1OC [compound 776], the LD50 ([1]; po) was 3750 mg/kg, the change in vivo at 375 mg/kg ([2]; 375 mg/kg p.o.) was -48% and the change in vivo at 375 mg/kg ([5]; 375 mg/kg p.o.) was 130%. For the same compound, the “Percentage protection” value ([3]; 375 mg/kg p.o.) was 44%.
For COc1cc(NC(=O)CN2CCOCC2)cc(OC)c1OC [compound 833], the “LD50” value (mice) was 3000 mg/kg.
